Measured values from patent US8796330B2, “Inhibitors of histone deacetylase and prodrugs thereof” (Methylgene Inc., priority 2006, dated 2014).

How the values were obtained:
[1] = tested on: acetylated histone H-4 in T24 human bladder cancer cells; assay: Histone H4 acetylation in whole cells by immunoblots; type: cell-based; conditions: T-24, read-out: EC50, concentration effective for increasing the acetylated H-4 signal by 50%, 16 hours incubation, immunoblot densitometry
Procedure: T24 human bladder cancer cells growing in culture are incubated with HDAC inhibitors for 16 hours. […] of total histone protein are loaded onto SDS/PAGE and transferred to nitrocellulose membranes. Membranes are probed with polyclonal antibodies specific for acetylated histone H-4 (Upstate Biotech Inc.), followed by horse radish peroxidase conjugated secondary antibodies (Sigma). Enhanced Chemiluminescence (ECL) (Amersham) detection is performed using Kodak films (Eastman Kodak). Acetylated H-4 signal is quantified by densitometry.

[2] = tested on: histone deacetylase in nuclear extracts from H446 cells (pooled HDACs); assay: Inhibition of histone deacetylase in H446 nuclear extracts ([3H]-acetylated histone substrate); type: biochemical, human; conditions: H446 nuclear extract
[3] = molecular target: recombinant human HDAC-1 enzyme (rHDAC-1) (Homo sapiens (Human), UniProt Q13547); assay: Inhibition of recombinant human HDAC-1 ([3H]-acetylated histone substrate); type: biochemical; conditions: Table 4, recombinant human HDAC-1
Sequence of recombinant human HDAC-1 enzyme (rHDAC-1) (Q13547 whole entry): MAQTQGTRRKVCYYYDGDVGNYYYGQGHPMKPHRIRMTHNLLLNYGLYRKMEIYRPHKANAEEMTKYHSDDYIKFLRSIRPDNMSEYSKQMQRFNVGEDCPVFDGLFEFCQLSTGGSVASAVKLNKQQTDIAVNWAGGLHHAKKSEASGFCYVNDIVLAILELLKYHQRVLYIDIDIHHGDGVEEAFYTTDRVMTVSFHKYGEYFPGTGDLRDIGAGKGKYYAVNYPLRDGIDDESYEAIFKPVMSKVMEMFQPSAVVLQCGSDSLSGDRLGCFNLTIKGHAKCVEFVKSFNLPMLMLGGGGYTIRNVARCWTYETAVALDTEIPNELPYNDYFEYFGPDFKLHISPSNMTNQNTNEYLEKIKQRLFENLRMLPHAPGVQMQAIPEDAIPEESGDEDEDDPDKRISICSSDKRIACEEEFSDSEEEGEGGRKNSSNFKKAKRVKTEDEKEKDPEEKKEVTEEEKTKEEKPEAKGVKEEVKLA

Compound | EC50 [1] [µM] | IC50 [2] [µM] | IC50 [3] [µM] | pooled HDACs percent inhibition ([2]; @ 1 μM) [% @ 1 μM]
O=C(/C=C/c1ccc(NS(=O)(=O)c2ccccc2)cc1)NO [Compound 36, N-Hydroxy-3-[4-(benzenesulfonylamino)-phenyl]-2-propenamide] | 5 | 0.5 |  | 
COc1ccc(S(=O)(=O)Nc2ccc(/C=C/C(=O)NO)cc2)cc1OC [Compound 90] | 1 | 0.4 |  | 
O=C(/C=C/c1ccc(NS(=O)(=O)c2ccc(-c3ccccc3)cc2)cc1)NO [Compound 120] | 1 | 0.12 | 0.01 | 

The next lines start with results.

EC50 [1] [µM] | IC50 [2] [µM] | IC50 [3] [µM] | Compound | pooled HDACs percent inhibition ([2]; @ 1 μM) [% @ 1 μM]
5 |  | 5 | Nc1ccccc1NC(=O)/C=C/c1ccc(NS(=O)(=O)c2cccc3ccccc23)cc1 [Compound 107] | 0
2 |  |  | COc1ccc(S(=O)(=O)Nc2ccc(/C=C/C(=O)Nc3ccccc3N)cc2)cc1 [Compound 122] | 
